The results in this text go back to US20180235993A1 (priority 2000, published 2018).

Structures are written as SMILES. Like-named read-outs stand apart in the source and are kept apart here. A value given as a limit tells only on which side of the number the result lay.

One test has as its system BVDV (NADL strain). Put plainly: Yield Reduction Assay. The format is cell-based, Bovine Viral Diarrhea virus. Here is the method: The assay was performed as described by Baginski, S. G.; Pevear, D. C.; Seipel, M.; Sun, S. C. C.; Benetatos, C. A.; Chunduru, S. K.; Rice, C. M. and M. S. Collett “Mechanism of action of a pestivirus antiviral compound” PNAS USA 2000, 97(14), 7981-7986, with minor modifications. Briefly, MDBK cells were seeded onto 24-well plates (2×10^5 cells per well) 24 hours before infection with BVDV (NADL strain) at a multiplicity of infection (MOI) of 0.1 PFU per cell. Serial dilutions of test compounds were added to cells in a final concentration of 0.5% DMSO in growth medium. Each dilution was tested in triplicate. After three days, cell cultures (cell monolayers and supernatants) were lysed by three freeze-thaw cycles, and virus yield was quantified by plaque assay. Briefly, MDBK cells were seeded onto 6-well plates (5×10^5 cells per well) 24 h before use. Cells were inoculated with 0.2 mL of test lysates for 1 hour, washed and overlaid with 0.5% agarose in growth medium. After 3 days, cell monolayers were fixed with 3.5% formaldehyde and stained with 1% crystal violet (w/v in 50% ethanol) to visualize plaques. FIG. 9 is a graphical illustration of the results from the Yield Reduction Assay. FIG. 8 is an image of BVDV yield reduction in the presence of increasing concentrations of β-D-2′-CH3-riboC.

The subject of the next test is BVDV. Description: Plaque Reduction Assay. As to conditions: Bovine viral diarrhea virus isolates and strains. The format is cell-based, Bovine Viral Diarrhea virus. Here is the method: For each compound the effective concentration was determined in duplicate 24-well plates by plaque reduction assays. Cell monolayers were infected with 100 PFU/well of virus. Then, serial dilutions of test compounds in MEM supplemented with 2% inactivated serum and 0.75% of methyl cellulose were added to the monolayers. Cultures were further incubated at 37° C. for 3 days, then fixed with 50% ethanol and 0.8% Crystal Violet, washed and air-dried. FIG. 7 is a graphical illustration of the results from the Plaque Reduction Assay. FIG. 8 is an image of BVDV plaque formation in the presence of increasing concentrations of β-D-2′-CH3-riboU.

With `CC1(O)[C@@H](O)[C@@H](CO)O[C@H]1n1cnc2c(=O)[nH]c(N)nc21` (stereo partly drawn) [β-D-2′-CH3-riboG], the “Conc. for 6-log Reduction” value with BVDV (NADL strain) came out at 20 μM. In the test with BVDV (NADL strain), the “Yield Reduction 6 log10 reduction (μM)” value is given as 20 μM. Besides, the “reduction in yield reduction assay” value in the test on BVDV (NADL strain) was 4 log. Further, the concentration for an effect of 90% (EC90) (commonly the concentration at which the effect reaches the 90% level) was 3 µM in the test on BVDV (NADL strain) (Bovine viral diarrhea virus isolates and strains, Table 13, BVDV); below 9 µM in the test on BVDV (72 h, concentration to obtain 90% virus suppression, 3 days, read-out: EC90); below 9 µM with BVDV (Table 13, BVDV, 90% virus suppression, read-out: Plaque Reduction (EC90)).
